# In US20230192646A1, “DIHYDRO-CYCLOPENTA-ISOQUINOLINE DERIVATIVES” (UCB Biopharma SRL, priority 2019, published 2023):
# Target: T1, IgE-Tb / sFcεR1α-AF488 (WT soluble IgE receptor FcεR1α) (Homo sapiens, UniProt P01854, N146Q/N252Q, form not given)
# T1 construct: fused on or other part: LanthaScreen amine-reactive terbium chelate, chemically conjugated (about 4 Tb per IgE-Fc); a label, not a fusion
# Test: In vitro FRET assay of IgE-Tb binding to sFcεR1α-AF488 (WT), 18 hours incubation (examples 17-35, 48-52 and 63)
# Conditions: 0.75 nM IgE-Tb, 0.9 nM sFcεR1α-AF488; 18 hours at room temperature; read-out: FRET IC50 range
# Protocol: 86 nmoles of IgE-Fc(N265Q, N371Q) (Young et al., 1995) at 172 μM in 100 mM NaHCO3, pH 9.5 was added to 1 mg of LanthaScreen™ Amine Reactive Tb Chelate (ThermoFisher catalogue number PV3583) and incubated for 16 hours at 20° C. The material was then buffer exchanged into Phosphate Buffered Saline (being, 137 mM NaCl, 2.7 mM KCl, 10 mM Na2HPO4, 1.8 mM K2HPO4, pH 7.4) and the material quantified and the degree of Tb conjugation determined by measuring the absorption at 280 nm and 343 nm.
# To a solution of 1.32 μmoles WT FcεR1α, at 377 μM, in 100 mM NaOAc pH 5.5, was slowly added 50 mM sodium periodate (70 μL) in 100 mM NaOAc, pH 5.5, with gentle mixing, to give a final concentration of 1 mM. […]
# 175 nmoles of protein was added to 1 mg of Alexa Fluor™ 488 hydrazide (Invitrogen) and incubated for 18 hours at 22° C. with gentle mixing. […] The material was quantified, and the degree of Alexa Fluor™ 488 conjugation determined by measuring the absorption at 280 nm and 497 nm. […]
# The aim was to measure binding of IgE-Tb to receptor, and the inhibition thereof by compounds, using an in vitro Fluorescence Resonance Energy Transfer (FRET) Assay. […]
# Measurement of FRET for each well was carried out by exciting at 337 nm and measuring emission at 490/520 nm using a PHERAstar FSX plate reader (BMG Labtech). FRET ratio was calculated as follows: […]
# T1 sequence (P01854 whole entry C105A/N146Q/N252Q, form open, the tested form may be a part): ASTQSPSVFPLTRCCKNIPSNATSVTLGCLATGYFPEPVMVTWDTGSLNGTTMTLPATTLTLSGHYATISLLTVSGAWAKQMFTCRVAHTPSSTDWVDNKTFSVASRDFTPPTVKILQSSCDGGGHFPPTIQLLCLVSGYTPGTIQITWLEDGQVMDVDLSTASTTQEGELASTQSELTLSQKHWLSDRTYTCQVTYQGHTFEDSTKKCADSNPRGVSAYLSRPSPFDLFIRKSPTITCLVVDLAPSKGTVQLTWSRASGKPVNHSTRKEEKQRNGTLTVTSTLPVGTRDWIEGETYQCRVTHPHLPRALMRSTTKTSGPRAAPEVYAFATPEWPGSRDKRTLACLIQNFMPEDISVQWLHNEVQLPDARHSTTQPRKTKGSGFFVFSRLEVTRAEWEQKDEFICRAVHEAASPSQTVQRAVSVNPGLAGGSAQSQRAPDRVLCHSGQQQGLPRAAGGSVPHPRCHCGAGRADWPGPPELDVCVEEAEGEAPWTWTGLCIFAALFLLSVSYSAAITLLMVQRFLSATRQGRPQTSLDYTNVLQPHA
smiles,measurement,value
"COc1ccc(CNC(=O)N[C@H]2C[C@H](Nc3cncc(OC)c3)c3c2cc(S(=O)(=O)NCC(C)C)c2cc(C4CC4)ncc32)cc1 (racemic) [Example 18, 1-[(4-methoxyphenyl)methyl]-3-[trans-(7R,9RS)-3-cyclopropyl-9-[(5-methoxypyridin-3-yl)amino]-5-(2-methylpropylsulfamoyl)-8,9-dihydro-7H-cyclopenta[h]isoquinolin-7-yl]urea]",IC50,1 to 10 nM
